pKi: −log10 of the molar value.
Key:
[1] = biological target: T1, Adenosine receptor A1 (Homo sapiens, UniProt P30542); assay: Displacement of [3H]DPCPX from human adenosine A1 receptor expressed in CHO cells; type: cell-based
T1 sequence (P30542 whole entry): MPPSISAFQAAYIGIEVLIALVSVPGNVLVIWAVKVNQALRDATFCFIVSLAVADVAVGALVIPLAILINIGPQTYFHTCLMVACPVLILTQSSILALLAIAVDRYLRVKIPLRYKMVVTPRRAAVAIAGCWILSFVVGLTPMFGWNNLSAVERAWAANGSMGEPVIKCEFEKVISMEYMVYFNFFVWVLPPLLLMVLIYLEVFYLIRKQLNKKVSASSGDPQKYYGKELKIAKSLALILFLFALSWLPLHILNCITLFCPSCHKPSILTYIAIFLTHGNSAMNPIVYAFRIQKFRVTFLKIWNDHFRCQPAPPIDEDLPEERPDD

[2] = biological target: T2, Adenosine receptor A3 (Homo sapiens, UniProt P0DMS8); assay: Displacement of [125I]AB-MECA from human adenosine A3 receptor expressed in CHO cells; type: cell-based
T2 sequence (P0DMS8 whole entry): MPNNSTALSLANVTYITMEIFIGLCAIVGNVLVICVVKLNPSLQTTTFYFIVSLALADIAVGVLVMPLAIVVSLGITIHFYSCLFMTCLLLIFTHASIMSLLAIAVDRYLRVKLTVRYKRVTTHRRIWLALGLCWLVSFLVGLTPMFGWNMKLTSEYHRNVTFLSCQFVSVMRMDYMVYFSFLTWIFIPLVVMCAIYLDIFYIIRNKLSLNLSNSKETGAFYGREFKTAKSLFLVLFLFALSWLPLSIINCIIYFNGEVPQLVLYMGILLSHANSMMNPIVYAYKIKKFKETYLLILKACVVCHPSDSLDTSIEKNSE

[3] = biological target: T3, Adenosine receptor A2a (Homo sapiens, UniProt P29274); assay: Displacement of [3H]ZM-241385 from human adenosine A2A receptor expressed in CHO cells; type: cell-based
T3 sequence (P29274 whole entry): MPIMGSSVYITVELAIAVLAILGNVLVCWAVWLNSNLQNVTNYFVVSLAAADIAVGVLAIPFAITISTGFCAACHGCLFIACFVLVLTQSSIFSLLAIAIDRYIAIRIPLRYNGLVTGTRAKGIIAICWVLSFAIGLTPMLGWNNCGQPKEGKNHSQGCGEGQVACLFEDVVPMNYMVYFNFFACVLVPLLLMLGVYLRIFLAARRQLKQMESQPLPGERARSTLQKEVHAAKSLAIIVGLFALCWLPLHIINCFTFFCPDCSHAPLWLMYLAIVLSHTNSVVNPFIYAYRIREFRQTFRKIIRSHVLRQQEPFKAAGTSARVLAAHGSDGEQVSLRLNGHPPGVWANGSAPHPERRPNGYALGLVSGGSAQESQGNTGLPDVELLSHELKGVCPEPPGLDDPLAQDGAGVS

[4] = biological target: Adenosine receptors; A1 & A2a (Homo sapiens) (UniProt P30542+P29274); assay: Selectivity for human adenosine A1 receptor over human adenosine A2A receptor; type: protein assay
Chain of Adenosine receptors; A1 & A2a (Homo sapiens) (P29274 whole entry, looked up, one chain of several): as the sequence (P29274 whole entry) above

[5] = biological target: T4, Adenosine receptor A1 (Homo sapiens) (UniProt P30542); assay: Activity at human adenosine A1 receptor expressed in CHO cells assessed as effect on forskolin-stimulated cAMP production at 100 uM; type: functional, cell-based; conditions: filed as inverse agonist
T4 sequence (whole entry): T1 sequence (P30542 whole entry)

[6] = biological target: T4, Adenosine receptor A1 (Homo sapiens); assay: Activity at human adenosine A1 receptor expressed in CHO cells assessed as effect on forskolin-stimulated cAMP production at 100 nM; type: functional, cell-based
[7] = biological target: T4, Adenosine receptor A1 (Homo sapiens); assay: Activity at human adenosine A1 receptor in CHO cells assessed as effect on CPA induced inhibition of forskolin-stimulated cAMP production at 1 uM; type: functional, cell-based; conditions: filed as antagonist
[8] = biological target: T3, Adenosine receptor A2a; assay: Displacement of [3H]ZM241385 from human adenosine A2A receptor expressed in CHO cells at 1 uM; type: cell-based
[9] = biological target: Adenosine receptors; A1 & A3 (Homo sapiens) (UniProt P30542+P0DMS8); assay: Selectivity for human adenosine A1 receptor over human adenosine A3 receptor; type: protein assay
[10] = biological target: T5, Adenosine receptor A3 (Homo sapiens) (UniProt P0DMS8); assay: Displacement of [125I]AB-MECA from human adenosine A3 receptor expressed in CHO cells at 1 uM; type: cell-based
T5 sequence (whole entry): T2 sequence (P0DMS8 whole entry)

[11] = biological target: T4, Adenosine receptor A1 (Homo sapiens); assay: Displacement of [3H]DPCPX from human adenosine A1 receptor expressed in CHO cells at 1 uM; type: cell-based
[12] = biological target: T1, Adenosine receptor A1; assay: Activity at human adenosine A1 receptor in CHO cells assessed as effect on CPA induced inhibition of forskolin-stimulated cAMP production; type: functional, cell-based

| SMILES | Ki [1] | Ki [2] | Ki [3] | Ratio Ki [4] | Activity ([6]; filed as inverse agonist) | Activity [7] | pKi [3] | other results |
| --- | --- | --- | --- | --- | --- | --- | --- | --- |
| c1ccc(-c2cc(-c3ccccc3)c3nc[nH]c3n2)cc1 | 1.2 nM (antagonist) | 180 nM (antagonist) | 39 nM (antagonist) | 33 |  |  |  |  |
| Cn1cnc2c(NC3CCCC3)ncnc21 |  |  |  |  |  |  |  | Activity [5]: Inverse agonist |
| Cc1nc2c(-c3ccccc3)cc(-c3ccccc3)nc2[nH]1 |  | 61 nM (antagonist) | 375 nM (antagonist) |  |  |  |  |  |
| c1ccc(-c2cc(-c3ccccc3)c3nc(C4CCCC4)[nH]c3n2)cc1 |  | 6.9 nM (antagonist) |  | > 1600 | Inverse agonist | Antagonist |  | inhibition [8]: 49% |
| CC(C)Cc1nc2c(-c3ccccc3)cc(-c3ccccc3)nc2[nH]1 | 0.55 nM (antagonist) | 25 nM (antagonist) | 189 nM (antagonist) | > 300 | Inverse agonist | Antagonist |  | Ratio Ki [9]: 45 |
| CCC(CC)c1nc2c(-c3ccccc3)cc(-c3ccccc3)nc2[nH]1 | 0.87 nM (antagonist) | 171 nM (antagonist) | 247 nM (antagonist) |  | Inverse agonist | Antagonist |  | Ratio Ki [9]: 199 |
| CC(C)c1nc2c(-c3ccccc3)cc(-c3ccccc3)nc2[nH]1 |  | 7.3 nM (antagonist) | 230 nM (antagonist) | 377 | Inverse agonist | Antagonist |  |  |
| c1cnc2[nH]c(C3CCCC3)nc2c1 |  |  |  |  |  |  |  | inhibition [10]: 0%; inhibition [11]: 6%; inhibition [8]: 3% |
| OC[C@H]1O[C@@H](n2cnc3c(NC4CCCC4)ncnc32)[C@H](O)[C@@H]1O |  |  |  |  |  |  |  | Activity ([6]; filed as agonist): Agonist |
| CCc1nc2c(C)cc(C)nc2[nH]1 | 101 nM (antagonist) |  |  |  |  |  |  | inhibition [10]: 49%; inhibition [8]: 8% |
| c1ccc(-c2cc(-c3ccccc3)c3nc(C4CCCCC4)[nH]c3n2)cc1 |  | 637 nM (antagonist) | 194 nM (antagonist) | 215 | Inverse agonist | Antagonist |  | Ratio Ki [9]: 718; IC50 [12]: 1700 nM (antagonist) |
| c1ccc(Cn2cnc3c(-c4ccccc4)cc(-c4ccccc4)nc32)cc1 |  |  |  |  |  |  |  | inhibition [10]: 15%; inhibition [11]: 38%; inhibition [8]: 2% |
| O=c1[nH]c2nc(-c3ccccc3)cc(-c3ccccc3)c2[nH]1 | 8.6 nM (antagonist) | 262 nM (antagonist) | 192 nM (antagonist) |  |  |  |  |  |
| CCCc1nc2c(-c3ccccc3)cc(-c3ccccc3)nc2[nH]1 | 2.5 nM (antagonist) | 69 nM (antagonist) | 114 nM (antagonist) |  |  |  |  |  |
| CC(C)(C)c1nc2c(-c3ccccc3)cc(-c3ccccc3)nc2[nH]1 | 5.5 nM (antagonist) | 115 nM (antagonist) |  |  |  |  | 5.98 |  |
| CCc1nc2c(-c3ccccc3)cc(-c3ccccc3)nc2[nH]1 | 2.4 nM (antagonist) | 8.5 nM (antagonist) | 177 nM (antagonist) |  |  |  |  |  |
